Assays:
[1] = biological target: Mcl-1 (Homo sapiens, UniProt Q07820); test: FP saturation binding of fluorescent probe to Mcl-1; conditions: 2 nM probe, read-out: Kd of Flu-BID to Mcl-1
Protocol: Fluorescence polarization values were measured using an Infinite M-1000 plate reader (Tecan U.S., Research Triangle Park, N.C.) in Microfluor 96-well, black, round-bottom plates (Thermo Scientific). […] Plates were mixed and incubated at room temperature for 1 hour with gentle shaking to assure equilibrium. […] Equilibrium dissociation constants (Kd) were then calculated by fitting the sigmoidal dose-dependent FP increases as a function of protein concentrations using Graphpad Prism 5.0 software (Graphpad Software, San Diego, Calif.).

[2] = test system: C57BL/6J mice induced with high-fat diet (HFD) and CCl4; test: HFD/CCl4 NASH mouse model, liver histology (NAS score, fibrosis); assay type: in vivo
Protocol: Male C57BL/6J mice with an age of 18 weeks were purchased from GemPharmatech Co., Ltd (Nanjing, Jiangsu). Mice were first fed with high-fat diet (HFD) for 11 weeks to induced obesity. Carbon tetrachloride (25% CCl4, 0.5 μl/g) was then intraperitoneally injected twice weekly for 4 consecutive weeks, to induce liver damages, leading to inflammation, cell death and fibrosis. The day of the first carbon tetrachloride injection was dated as day 0. At day 7, the animals were randomized and treatment started. The test article administration and the animal numbers in each group are shown in the following experimental design Table 3.
All animals were euthanatized at day 28 to collect blood and liver samples for biochemical and histological analysis.
Liver tissue from animals in each group were analyzed for NAS scores.
(§1) Specifically, the scores assessed were: • 1) the unweighted sum of the steatosis (0-3); • 2) lobular inflammation (0-3); • 3) hepatocellular ballooning (0-2); and • 4) liver fibrosis score (0-4), after Sirius red staining.
Liver tissues of each group of animals were taken, and NAS scores were analyzed by hematoxylin-eosin (HE) staining, and liver fibrosis was analyzed by Sirius red staining.
After staining, the NAS scores of the prepared samples were evaluated. In hematoxylin-eosin stained sections, NAS scores were evaluated according to the degree of steatosis, inflammatory cell infiltration and […].
After staining, fibrosis of the liver was additionally evaluated. All sections stained with Sirius Red were scanned by an Aperio VERSA 200 Brightfield & Fluorescenc slice scanner. Two fields were randomly selected under a 5×field of view. The two fields covered 85% of the liver tissue area. Quantitative analysis to calculate the area of fibrosis deposition in the slices was performed.
(§2) Prism, version 6, (GraphPad Software Inc., San Diego, CA) was used for all statistical analysis and for graphic presentation.
After drug treatment for 21 days, animals were euthanatized to collect liver samples for pathological analysis.

[3] = test system: rats with DEN-HFD-CHOL induced non-alcoholic steatohepatitis; test: DEN-HFD-CHOL induced NASH rat model, liver histology (NAS score, fibrosis); assay type: in vivo; conditions: 42 days; for NAS score (FIG. 3B) / ballooning (FIG. 3B) / steatosis, lobular inflammation and hepatocellular ballooning (HE-staining of liver tissue, FIG. 3A): Compound 1 10 and 30 mg/kg, GFT505 30 mg/kg
Source text: Male SD rats, with an age of 10 days, were purchased from Vital River Co., Ltd (Beijing).
The rats were given a one-time intraperitoneal injection of diethylnitrosamine (DEN) two weeks after birth, and continued breast milk feeding for two weeks.
After four weeks, a total of 56 male rats were selected and divided into 7 groups according to animal weight. The rats were started on a high-fat, high-cholesterol diet (HFD-CHOL), with a feeding cycle of 12 weeks. Before intraperitoneal injection of DEN, 5 male rats were randomly selected for parallel feeding as a control cohort, which were fed a standard diet and not injected with DEN.
After 7 weeks of HFD-CHOL diet feeding, the animals were randomized and treatment with vehicle or the indicated compound was started. The test article administration and the animal numbers in each group are shown in the following experimental design Table 5.
The body weight of animals was measured at the day of the last administration (the end of the test). After the animal were fasted for 6 hours, all animals were euthanatized to collect blood and liver samples for biochemical and histological analysis.
Liver tissue from animals in each group were analyzed for NAS scores, the unweighted sum of the steatosis (0-3), lobular inflammation (0-3) and hepatocellular ballooning (0-2) scores, after HE-staining, and analyzed for liver fibrosis score (0-4) after Sirius red staining.
as §1, with “Liver tissue from animals in each group were analyzed for NAS scores using the methods disclosed above in Example 16. Specifically,” for “Specifically,”
as §2
After drug treatment for 42 days, animals were euthanatized to collect liver samples for pathological analysis.

[4] = Compound 1 50 mg/kg qd p.o., 21 days
[5] = Compound 1 10 and 30 mg/kg vs GFT505 30 mg/kg, qd p.o.

Chain of Mcl-1 (Q07820 whole entry): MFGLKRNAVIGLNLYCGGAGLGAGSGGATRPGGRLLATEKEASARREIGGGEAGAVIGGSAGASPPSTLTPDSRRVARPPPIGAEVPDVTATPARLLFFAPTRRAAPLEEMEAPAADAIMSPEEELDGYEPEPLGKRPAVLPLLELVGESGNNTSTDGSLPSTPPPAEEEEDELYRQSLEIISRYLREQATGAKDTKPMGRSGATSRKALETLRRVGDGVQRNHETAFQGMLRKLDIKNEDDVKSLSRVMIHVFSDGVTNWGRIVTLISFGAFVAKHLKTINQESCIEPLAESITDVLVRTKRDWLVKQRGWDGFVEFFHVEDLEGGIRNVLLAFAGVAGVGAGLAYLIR

Row | Molecule | Kd [1] [nM] | fibrosis (Sirius red staining, fibrosis score, FIG. 2A/2B) ([2]; Compound 1 50 mg/kg qd p.o. single agent, in comparison to OCA) | ballooning (NAS score analysis, FIG. 1B) [2, 4] | steatosis (NAS score analysis, FIG. 1B) [2, 4] | steatosis, lobular inflammation and hepatocellular ballooning (HE-staining of liver tissue, FIG. 1A) ([2]; Compound 1 50 mg/kg qd p.o., OCA 30 mg/kg qd p.o., alone or combined, 21 days) | anti-inflammation effect compared with OCA alone ([2]; Compound 1 50 mg/kg vs OCA 30 mg/kg, qd p.o., 21 days) | inflammation (NAS score analysis, FIG. 1B) ([2]; Compound 1 50 mg/kg, OCA 30 mg/kg, qd p.o., 21 days) | fibrosis (Sirius red staining, fibrosis score, FIG. 4A/4B) ([3]; Compound 1 10 and 30 mg/kg qd p.o.) | anti-inflammation effects compared with GFT505 [3, 5] | effects on steatosis compared with GFT505 [3, 5] | NAS score (FIG. 3B) ([3]; qd p.o.) | ballooning (FIG. 3B) ([3]; qd p.o.) | steatosis, lobular inflammation and hepatocellular ballooning (HE-staining of liver tissue, FIG. 3A) ([3]; qd p.o.)
1 | Flu-BID: Fluorescein labeled BID (79-99) peptide, fluorescent probe in FP assay for Mcl-1 | 6.9 ± 0.9 |  |  |  |  |  |  |  |  |  |  |  | 
2 | O=C(NS(=O)(=O)c1ccc(NC[C@H]2COCCO2)c([N+](=O)[O-])c1)c1ccc(N2CCN(CC3=C(c4ccc(Cl)cc4)CC4(CCC4)CC3)CC2)cc1Oc1cnc2[nH]ccc2c1 [Compound 1, (S)-N-((4-(((1,4-dioxan-2-yl)methyl)amino)-3-nitrophenyl)sulfonyl)-2-((1H-pyrrolo[2,3-b]pyridin-5-yl)oxy)-4-(4-((6-(4-chlorophenyl)spiro[3.5]non-6-en-7-yl)methyl)piperazin-1-yl)benzamide] |  | modest effect | modest effects | reduced | alleviated | better anti-inflammation effect than OCA alone | reduced | modest alleviation | improved anti-inflammation effects | more modest effects | significantly reduced | completely abolished | alleviated
3 | CSc1ccc(C(=O)/C=C/c2cc(C)c(OC(C)(C)C(=O)O)c(C)c2)cc1 [GFT505, elafibranor, reference compound] |  |  |  |  |  |  |  |  |  |  | significantly reduced | completely abolished | alleviated

Reference: patent publication US20230398110A1, “COMPOSITIONS AND METHODS FOR TREATING NON-ALCOHOLIC STEATOHEPATITIS” (ASCENTAGE PHARMA (SUZHOU) CO., LTD., priority 2020, published 2023)
